Columns and labels:
SUDHL6 cells = assay: qPCR analysis of gene expression in cell culture; format: cell-based
Procedure: To perform qPCR analysis in cell culture, DLBCL cells were treated with 0-10 μM IKE, Fer-1, or β-Me for the indicated times. RNA was extracted using the Qiashredder and Qiagen RNeasy Mini kits (Qiagen) according to the manufacture's protocol. 2 μg RNA from each sample was reversed transcribed to cDNA using a High Capacity cDNA Reverse Transcription Kit (Thermo Fisher Scientific, 4368814). Quantitative PCR reactions were performed using Power SYBR Green PCR Master Mix (Applied Biosystems) with triplicate measurement on ViiA 7 Real-Time PCR instrument (Thermo Fischer). HPRT1 was used as an internal reference. Differences in mRNA levels compared with HPRT1 were computed between vehicle and experimental groups using the ΔΔCt method. The primers used in the study were listed below.

[1] = tested on: SUDHL6 xenograft tumor tissue; assay: Immunofluorescence on frozen tumor sections from efficacy study (COX-2, MDA, 8-OHdG); format: in vivo, NCG mice
Procedure: NCG mice, 6-weeks old, were injected with 10 million SUDHLO-6 cells subcutaneously. The mice were treated after the tumor size reached 100 mm^3. Mice were separated randomly into treatment groups and dosed with 23 mg/kg IKE, 40 mg/kg IKE, 23 mg/kg IKE PEG-PLGA nanoparticles (equal to 700 mg/kg PEG-PLGA), vehicle 1 (based on volume), and vehicle 2 (700 mg/kg PEG-PLGA) once daily by IP for 14 days. Tumor volume was measured daily with electronic caliper and calculated using the formula: 0.5×length×width^2. 3 h after the final dosage, mice were euthanized with CO2 and tumor tissue was dissected, weighed, divided into 4-6 segments, frozen, and stored at −80° C. Tumor volume change was analyzed in Prism using one-way ANOVA. Tumor tissues were analyzed as described in the RT-qPCR, immunofluorescence, TBARS, and lipidomics sections below.
Tumor tissues were fixed in 4% paraformaldehyde (PFA) for 24 h at 4° C. followed by washing with PBS three times. The tissues were perfused in 30% sucrose for 24 h at 4° C. for cryo-protection. The samples were embedded in OCT cryostat sectioning medium, and then moved directly into a cryostat. After equilibration of temperature, frozen tumor tissues were cut into 5 μm thick sections. Tissue sections were mounted on to poly-L-lysine coated slides by placing the cold sections onto warm slides. Slides were stored at −80° C. until staining. For staining, slides were warmed to room temperature followed by washing with PBS twice. A hydrophobic barrier pen was used to draw a circle on each slide. The slides were permeabilized with PBS/0.4% Triton X-100 twice before non-specific-binding blocking by incubating the sections with 10% goat serum (ThermoFisher 50197Z) for 30 minutes at room temperature. The sections were separately incubated with mouse anti-MDA mAb 1F83 (1:1000 dilution), anti-cyclooxygenase 2 (COX 2, AKA PTGS2) antibody (Abcam, ab15191, 1:200 dilution), or anti-8-OH-dG (DNA/RNA damage) antibody (Abcam, ab62623, 1:200 dilution) overnight at 4° C. in humidified chambers. Sections were washed with PBST for twice before incubating with goat anti-mouse IgG H&L (Alexa Fluor 647) (Abcam, ab150115, 1:1000 dilution) or goat anti-rabbit IgG H&L highly cross-absorbed secondary antibody (Alexa Fluor488, Thermo Fisher Scientific, A-11034, 1:1000) at room temperature for 1 h. Slides were then washed twice with PBST. ProLong Diamond antifade mountant with DAPI (ThermoFisher P36962) was added onto slides, which were then covered with the coverslips, sealed by clear fingernail polish and observed under confocal microscopy. All images were captured on a Zeiss LSM 800 confocal microscope at Plan-Apochromat 63×/1.40 Oil DIC objective with constant laser intensity for all analyzed samples. The intensity above threshold of the fluorescent signal of the bound antibodies was analyzed using NIH ImageJ software. Data were expressed as fold change comparing with the vehicle.

SMILES: CC(C)Oc1ccc(C(=O)Cn2ccnc2)cc1-n1c(CN2CCN(C(=O)COc3ccc(Cl)cc3)CC2)nc2ccccc2c1=O [IKE, Imidazole ketone erastin]
- GPX4, CBS and ACSL4 expression (SUDHL6 cells; DLBCL cells, IKE treatment (data not shown)): not upregulated
- SLC7A11, PTGS2 and CHAC1 expression (SUDHL6 cells; SUDHL6 cells following IKE treatment): significantly increased
- SLC7A11 expression induced starting from (time post incubation) (SUDHL6 cells; SUDHL-6 cells, 500 nM IKE): 3 h
- expression of lipid metabolism genes ACC1, ELOVL7, ATGL, sPLA2F, LPEAT1, LPCAT4, ALOX12, ALOX15 (SUDHL6 cells; SUDHL-6 cells, 500 nM IKE): upregulated
- highest mRNA change (CHAC1) (SUDHL6 cells; SUDHL-6 cells, 500 nM IKE): 33 fold
- increased PTGS2 expression (SUDHL6 cells; SUDHL-6 cells, 500 nM IKE, starting from 5 minutes): over 10 fold
- increased CHAC1 expression (SUDHL6 cells; SUDHL-6 cells, 500 nM IKE, starting from post 5 minutes): over 5 fold
- increase in 8-OHdG intensity (immunofluorescence) ([1]; 23 mg/kg daily for 14 days): 1.8 fold
- increase in COX-2 intensity (immunofluorescence) ([1]; 23 mg/kg daily for 14 days): 2.0 fold
- increase in MDA intensity (immunofluorescence) ([1]; 23 mg/kg daily for 14 days): 1.8 fold
- increase in 8-OHdG intensity (immunofluorescence) ([1]; 40 mg/kg daily for 14 days): 2.2 fold
- increase in COX-2 intensity (immunofluorescence) ([1]; 40 mg/kg daily for 14 days): 2.8 fold
- increase in MDA intensity (immunofluorescence) ([1]; 40 mg/kg daily for 14 days): 2.0 fold
